One block for each compound: values may come before it.
Tests used:
[1] = tested on: CREB phosphorylation in T cells; assay: pCREB signaling inhibition assay, ex vivo human whole blood T cells; format: cell-based; conditions: for pCREB at the highest concentration tested: 10 µM antagonist; for IC50: Homo sapiens, T-cell, read-out: IC50, block of CREB phosphorylation in CD4+ T cells
Protocol: Whole blood samples from three different healthy donors were collected and seeded in 96-well deep plates at a concentration of 90 µL/well. […] Cells were then lysed and fixed with BD Lyse/Fix Buffer (BD Bioscience, 558,049) for 15 min at 37 °C. After washed twice with DPBS (Hyclone, SH30028.02), the cells were centrifuged at 600 × g for 8 min. Cells were permeabilized by slow addition of BD Phosflow™ Perm Buffer III (BD Bioscience, 55,805) and incubated on ice for 60 min, and then resuspended in DPBS and stained with anti-CD3, anti-CD4, anti-CD8, and anti-pCREB (Ser133) antibodies for 1 h at room temperature in the dark. Cells were then washed twice and acquired on a flow cytometric (BD FACSCanto™ II) with DIVA software (BD Biosciences). The reported pCREB signal is the mean fluorescent intensity (MFI).
For ex vivo pCREB assessment, whole blood samples were collected from healthy donors, plated at 90 µL/well in 96-well deep plates, and pre-incubated with DZD2269 at 37 °C for 30 min.

[2] = tested on: monocyte-derived dendritic cells; assay: DC maturation assay (CD83); format: cell-based, human; conditions: LPS-stimulated iDCs, 10 µM NECA
Protocol: Monocytes were isolated from human PBMCs using untouched human monocytes kit (Invitrogen, #11350D) according to the manufacturer instruction. Isolated monocytes were cultured with 100 ng/ml GM-CSF (R&D, 215-GM) and 50 ng/ml IL-4 (R&D, 204-IL) supplemented every 2 days. On day 5, 100 ng/ml LPS (Sigma, L4391) was added for 48 h to stimulate DC maturation. […] CD83 was measured as DC maturation marker by flow cytometry, and the gating strategy is shown in supplemental Fig. S2. Data were analyzed with FlowJo software.

A2aR = molecular target: T1, A2aR (Homo sapiens, UniProt P29274); assay: cAMP accumulation assay (HTRF) in CHO-A2aR cells; format: cell-based
T1 construct: host or cells: CHO
T1 sequence (P29274 whole entry): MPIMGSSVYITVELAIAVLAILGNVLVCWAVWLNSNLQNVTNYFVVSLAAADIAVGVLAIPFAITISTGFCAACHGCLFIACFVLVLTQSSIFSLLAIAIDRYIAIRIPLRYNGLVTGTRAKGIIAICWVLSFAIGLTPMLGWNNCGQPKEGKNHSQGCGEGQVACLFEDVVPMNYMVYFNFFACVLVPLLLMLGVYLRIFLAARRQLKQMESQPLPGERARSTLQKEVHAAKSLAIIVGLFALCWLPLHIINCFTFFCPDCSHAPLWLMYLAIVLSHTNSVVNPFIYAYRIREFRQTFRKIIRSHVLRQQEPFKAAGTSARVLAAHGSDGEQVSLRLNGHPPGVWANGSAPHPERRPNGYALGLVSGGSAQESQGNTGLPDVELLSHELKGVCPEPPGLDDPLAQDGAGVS
Protocol: CHO cells stably expressing human adenosine receptors (CHO-A2aR, CHO-A2bR, CHO-A1R and CHO-A3R) were purchased from GenScript. […] All CHO cells were cultured in Ham’s F12K medium (Gibco) with 10% FBS (Gibco) and RM-1 in DMEM (Gibco) medium with 10% FBS. […] All other cells were cultured without antibiotics. All cells were maintained and propagated in a humidified incubator at 37 °C, 5% CO2.
Assays were performed with HTRF cAMP kit (Cisbio, 62AM4PEJ). […] CHO-A2aR and CHO-A2bR cells were seeded in the plates at a density of 5,000 cells/well in F-12 medium containing 10% FBS. […] The dose-response curves were fitted by nonlinear regression using GraphPad Prism.

[3] = set-up: method as in PMID 24835328, PMID 32685154; conditions: cited from earlier work
activated human PBMCs = assay: PBMC cytokine release assay (IL-2, IFN-γ, TNF-α); format: cell-based; conditions: NECA at 10 µM
Protocol: PBMCs (2 × 10^5 cells/well) were seeded in 96 well plate pre-coated with 10 ng/ml anti-CD3 antibody and stimulated with 20 ng/ml anti-CD28 antibodies to test IFN-γ and IL-2 secretion) or stimulated with 100 ng/ml LPS for TNF-α detection. […] Cell supernatants were collected at 24 h (IL-2 and TNF-α) and 72 h (IFN-γ) post-stimulation. IL-2 (R&D, S2050), IFN-γ (R&D, SIF50) and TNF-α (eBioscience, 88-7346-88) ELISA kits were used for measurement.

[4] = tested on: CREB phosphorylation in CD3+ T cells; assay: CREB phosphorylation assay in whole blood; format: cell-based; conditions: human whole blood, up to 100 µM
Protocol: Whole blood samples from three different healthy donors were collected and seeded in 96-well deep plates at a concentration of 90 µL/well. […] After washed twice with DPBS (Hyclone, SH30028.02), the cells were centrifuged at 600 × g for 8 min. […] Cells were then washed twice and acquired on a flow cytometric (BD FACSCanto™ II) with DIVA software (BD Biosciences). The reported pCREB signal is the mean fluorescent intensity (MFI).

Pan02 tumors = assay: Pan02 pancreatic subcutaneous syngeneic model; format: in vivo, C57BL/6 mice; conditions: oxaliplatin 10 mg/kg alone or DZD2269 3 mg/kg alone
Protocol: B16F10, RM-1 and Pan02 cells were harvested and suspended in DPBS. Single-cell suspensions of greater than 90% viability were used for injection. Tumor cells were injected subcutaneously in the left flank of the C57BL/6 mice with a total cell number of 2 × 10^6 (B16F10 and RM-1) and 1 × 10^7 cells (Pan02) in a volume of 0.1 ml. Tumor-bearing mice were randomized into treatment groups when the mean tumor volume reached 40 to 100 mm^3. Mice were then treated with vehicle or compounds starting the day after randomization, and tumor volume and body weight were measured twice a week. Tumor growth inhibition from the onset of treatment was assessed by comparing the mean change in tumor volume between control and treatment groups and expressed as tumor growth inhibition. Tumor nodules were measured two-dimensionally with calipers, and tumor volumes were calculated using the following formula: tumor volume (TV) = (length × width^2) × 0.52.
Tumor tissues were collected at the end of the study. […] Positive cell percentage of stained IHC slides was quantified with a HALO image analysis platform (Indica Labs).
Fig. 4 DZD2269 enhances the efficacy of radiotherapy (RT) in syngeneic mouse in vivo models. […] (A) IFN-γ in supernatant was measured 72 h after co-culture. (B) IL-2 in supernatant was measured 24 h after co-culture. […] Infiltrated CD8 + and CD4 + T cells were determined by IHC. […]

SMILES: Nc1ncnc2c1ncn2[C@@H]1O[C@H](CO)[C@@H](O)[C@H]1O [adenosine]
Biological half-life in human blood [3]: less than 10 s

SMILES: CCNC(=O)[C@H]1O[C@@H](n2cnc3c(N)ncnc32)[C@H](O)[C@@H]1O [NECA, 5′-N-ethylcarboxamide adenosine]
IL-2, IFN-γ and TNF-α production (activated human PBMCs): completely blocked | CREB phosphorylation in CD3+ T cells [4]: stimulated CREB phosphorylation in a concentration dependent manner

SMILES: O=C1[O][Pt]2([NH][C@@H]3CCCC[C@H]3[NH]2)[O]C1=O [oxaliplatin, Oxaliplatin]
Anti-tumor effect, single agent (Pan02 tumors): showed some anti-tumor effect

Second part, led by results:

IC50 [1]: > 1000 nM
SMILES: Cc1ccc(-c2nc(N)nc3c2nnn3Cc2cccc(CO[C@H]3CCOC3)n2)o1 [CPI-444]
pCREB at the highest concentration tested ([1]; human whole blood, 10 µM NECA): failed to bring pCREB to the baseline (control) level

IC50 [1]: > 1000 nM
SMILES: Cc1cc(-c2nnc(N)nc2-c2ccc(F)cc2)cc(Cl)n1 [AZD4635]
pCREB at the highest concentration tested ([1]; human whole blood, 10 µM NECA): failed to bring pCREB to the baseline (control) level

IC50 (A2aR; stimulated with 0.1 µM NECA): 4.1 ± 1.2 nM | IC50 (A2aR; stimulated with 1 µM adenosine): 3.4 ± 0.92 nM | IC50 (A2aR; stimulated with 10 µM NECA): 408 ± 25 nM | IC50 (A2aR; stimulated with 100 µM adenosine): 463 ± 90 nM | IC50 [1]: 130 nM
SMILES: Cc1c(C#N)cccc1-c1cc(-c2cn(Cc3cccc(C(C)(C)O)n3)nn2)nc(N)n1 [AB928]
Relief of NECA inhibition of DC maturation (CD83) [2]: did not relieve the inhibitory effect | Concentration that brings pCREB to the control level ([1]; human whole blood, 10 µM NECA): over 1,000 nM
